# Test: Chemical stability: hydrolysis degradation of the Compound on processing
# Type: physicochemical
# Details: urea bond cleavage into aniline and aminopyrimidine degradants
# From the text: In view of the above mentioned difficulties, the inventors tried to compact the voluminous Compound together with excipients without the use of aqueous media. […] There could be various root causes for the degradation problem. The inventor had run numerous experimental trials to identify the cause.
smiles,measurement,value
"CCN1CCN(c2ccc(Nc3cc(N(C)C(=O)Nc4c(Cl)c(OC)cc(OC)c4Cl)ncn3)cc2)CC1 [the Compound, 3-(2,6-Dichloro-3,5-dimethoxy-phenyl)-1-{6-[4-(4-ethyl-piperazin-1-yl)-phenylamino]-pyrimidin-4-yl}-1-methyl-urea]",Chemical stability (hydrolysis degradation products),prone to hydrolysis

# Reference: US10278969B2, “Pharmaceutical dosage forms” (Novartis AG, priority 2013, dated 2019)
